{"source": "PubChem BioAssay AID1259246", "about": "(Broad Institute, 2017)", "assay": "antibacterial activity against Clostridioides difficile – 10-point retest, dose response (AID 1259246)", "details": "Clostridioides difficile clinical isolate growth, OD600, 24 h", "note": "Records with an inconclusive call do not appear. The source made the active and inactive calls.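 How the source made its calls: active means valid dose-response fit whose half-maximal growth-inhibiting concentration is at or below a set limit above the top tested dose; inconclusive means flat fit with effect between 30 and 70%, or poor fit; inactive means half-maximal concentration above a set limit.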", "data": [{"smiles": "COc1ccc(NC(=O)Nc2cccc3c2O[C@H](CN(C)C(=O)NC2CCCCC2)[C@@H](C)CN([C@H](C)CO)C3=O)cc1", "values": [{"measurement": "activity change, negative = inhibition", "setting": "at 120 µM (top of the series)", "result": "-0.118% (inactive)"}]}, {"smiles": "C[C@@H]1CCCCO[C@H](CN(C)S(=O)(=O)c2ccc(F)cc2)[C@@H](C)CN([C@@H](C)CO)C(=O)c2cc(NC(=O)Nc3cccc4ccccc34)ccc2O1", "values": [{"measurement": "activity change, negative = inhibition", "setting": "at 120 µM (top of the series)", "result": "19.1% (inactive)"}]}, {"smiles": "C[C@@H]1CN([C@@H](C)CO)S(=O)(=O)c2ccc(C#CCN(C)C)cc2O[C@@H]1CN(C)Cc1ccc2c(c1)OCO2", "values": [{"measurement": "activity change, negative = inhibition", "setting": "at 120 µM (top of the series)", "result": "2.58% (inactive)"}]}, {"smiles": "COc1ccc(NC(=O)Nc2cccc3c2O[C@H](CN(C)Cc2ccc(Oc4ccccc4)cc2)[C@@H](C)CN([C@@H](C)CO)C3=O)cc1", "values": [{"measurement": "activity change, negative = inhibition", "setting": "at 120 µM (top of the series)", "result": "19.2% (inactive)"}]}, {"smiles": "C/C=C/c1ccc2c(c1)O[C@H](CN(C)Cc1ccc(F)cc1)[C@H](C)CN([C@H](C)CO)S2(=O)=O", "values": [{"measurement": "activity change, negative = inhibition", "setting": "at 120 µM (top of the series)", "result": "11.8% (inactive)"}]}, {"smiles": "C[C@@H]1CN([C@@H](C)CO)S(=O)(=O)c2ccc(/C=C/c3ccccc3)cc2O[C@H]1CN(C)Cc1cccnc1", "values": [{"measurement": "activity change, negative = inhibition", "setting": "at 120 µM (top of the series)", "result": "71.2% (inactive)"}]}, {"smiles": "C[C@@H]1CN([C@@H](C)CO)C(=O)Cc2cc(NS(C)(=O)=O)ccc2O[C@@H]1CN(C)Cc1ccc(-c2ccccc2)cc1", "values": [{"measurement": "activity change, negative = inhibition", "setting": "at 135 µM (top of the series)", "result": "16.9% (inactive)"}]}, {"smiles": "Cc1noc(C)c1S(=O)(=O)Nc1ccc2c(c1)C(=O)N([C@@H](C)CO)C[C@H](C)[C@@H](CN(C)Cc1ccc3c(c1)OCO3)OCCCC[C@@H](C)O2", "values": [{"measurement": "activity change, negative = inhibition", "setting": "at 60 µM (top of the series)", "result": "3.17% (inactive)"}]}, {"smiles": "C[C@H](CO)N1C[C@H](C)[C@H](CN(C)Cc2ccc(-c3ccccc3)cc2)Oc2c(NC(=O)Nc3ccc(C(F)(F)F)cc3)cccc2C1=O", "values": [{"measurement": "activity change, negative = inhibition", "setting": "at 120 µM (top of the series)", "result": "16.3% (inactive)"}]}, {"smiles": "CO[C@@H]1CN(C)C(=O)c2ccc(NC(=O)c3ccc(-c4ccccc4)cc3)cc2OC[C@@H](C)NC[C@H]1C", "values": [{"measurement": "activity change, negative = inhibition", "setting": "at 60 µM (top of the series)", "result": "25.2% (inactive)"}]}, {"smiles": "C[C@H](CO)N1C[C@H](C)[C@@H](CN(C)Cc2ccncc2)Oc2cc(-c3ccccc3)ccc2S1(=O)=O", "values": [{"measurement": "activity change, negative = inhibition", "setting": "at 120 µM (top of the series)", "result": "21.1% (inactive)"}]}, {"smiles": "CC(C)CC#Cc1ccc2c(c1)O[C@H](CN(C)CC1CCOCC1)[C@H](C)CN([C@@H](C)CO)S2(=O)=O", "values": [{"measurement": "activity change, negative = inhibition", "setting": "at 120 µM (top of the series)", "result": "15.6% (inactive)"}]}, {"smiles": "C[C@@H]1CN([C@H](C)CO)S(=O)(=O)c2ccc(C#Cc3ccccc3F)cc2O[C@@H]1CN(C)CC1CCOCC1", "values": [{"measurement": "activity change, negative = inhibition", "setting": "at 120 µM (top of the series)", "result": "19.4% (inactive)"}]}, {"smiles": "Cc1cc(C(=O)Nc2cccc3c2O[C@H](CN(C)Cc2ccc(-c4ccccc4)cc2)[C@H](C)CN([C@@H](C)CO)C3=O)n(C)n1", "values": [{"measurement": "activity change, negative = inhibition", "setting": "at 120 µM (top of the series)", "result": "0.388% (inactive)"}]}, {"smiles": "C[C@@H]1CN([C@@H](C)CO)S(=O)(=O)c2ccc(/C=C/c3ccccc3)cc2O[C@H]1CN(C)C(=O)Nc1ccc(F)cc1", "values": [{"measurement": "activity change, negative = inhibition", "setting": "at 120 µM (top of the series)", "result": "32.6% (inactive)"}]}, {"smiles": "C[C@@H]1CN([C@H](C)CO)C(=O)Cc2cc(NC(=O)CCCN(C)C)ccc2O[C@@H]1CN(C)Cc1ccc(Oc2ccccc2)cc1", "values": [{"measurement": "activity change, negative = inhibition", "setting": "at 120 µM (top of the series)", "result": "22.2% (inactive)"}]}, {"smiles": "COc1ccc(C(=O)Nc2ccc3c(c2)C(=O)N(C)C[C@H](OC)[C@H](C)CN[C@@H](C)CO3)cc1", "values": [{"measurement": "activity change, negative = inhibition", "setting": "at 120 µM (top of the series)", "result": "8.1% (inactive)"}]}, {"smiles": "C/C=C/c1ccc2c(c1)O[C@@H](CN(C)Cc1ccc(C(=O)O)cc1)[C@H](C)CN([C@H](C)CO)S2(=O)=O", "values": [{"measurement": "activity change, negative = inhibition", "setting": "at 60 µM (top of the series)", "result": "8.2% (inactive)"}]}, {"smiles": "C[C@@H]1CN([C@H](C)CO)C(=O)c2cccc(NC(=O)Nc3ccccc3)c2O[C@H]1CN(C)Cc1ccc(Oc2ccccc2)cc1", "values": [{"measurement": "activity change, negative = inhibition", "setting": "at 120 µM (top of the series)", "result": "17.8% (inactive)"}]}, {"smiles": "C[C@@H]1CN([C@H](C)CO)C(=O)c2cc(NC(=O)Nc3cccc4ccccc34)ccc2O[C@@H](C)CCCCO[C@@H]1CN(C)S(=O)(=O)c1ccc(F)cc1", "values": [{"measurement": "activity change, negative = inhibition", "setting": "at 120 µM (top of the series)", "result": "12% (inactive)"}]}, {"smiles": "O=C(C[C@H]1C[C@@H]2c3cc(NC(=O)Nc4ccc(F)cc4)ccc3O[C@@H]2[C@@H](CO)O1)NC1CCCCC1", "values": [{"measurement": "activity change, negative = inhibition", "setting": "at 60 µM (top of the series)", "result": "0.486% (inactive)"}]}, {"smiles": "CO[C@@H]1CN(C)C(=O)c2ccc(NC(=O)c3nc4ccccc4s3)cc2OC[C@@H](C)NC[C@H]1C", "values": [{"measurement": "activity change, negative = inhibition", "setting": "at 120 µM (top of the series)", "result": "-7.73% (inactive)"}]}, {"smiles": "C[C@@H]1CN([C@H](C)CO)C(=O)Cc2cc(NS(=O)(=O)c3ccccc3)ccc2O[C@@H]1CN(C)Cc1ccc(-c2ccccc2)cc1", "values": [{"measurement": "activity change, negative = inhibition", "setting": "at 135 µM (top of the series)", "result": "31.9% (inactive)"}]}]}
